From paper PMC4853610, “Systemic Dosing of Thymosin Beta 4 before and after Ischemia Does Not Attenuate Global Myocardial Ischemia-Reperfusion Injury in Pigs” (Frontiers in Pharmacology, 2016)

Key:
small mesentery arteries = assay: Artery wire myography, small mesentery arteries; design: species or system pig
Text: (§1) Eighteen representative segments of small mesentery arteries and coronary arteries (250–350 μm in diameter) from 4 blood-donor pigs were studied by wire myography for contractile responses to TB4 in vitro. Samples were excised rapidly and placed in ice-cold oxygenated Krebs solution. The composition of the Krebs solution was as follows (in mM): 119 NaCl, 4.7 KCl, 25 NaHCO3, 1.2 NaH2PO4, 2.5 CaCl2, 1.2 MgSO4, and 5.5 glucose. Arterial rings (2 mm in length) were mounted using 40 μm wires in a microvessel myograph (Danish Myograph Technologies, Aarhus, Denmark) for isometric tension recordings. After mounting, vessels were equilibrated, normalized and contracted repeatedly with 62 mM potassium chloride until maximal and reproducible contractions were obtained. To examine the contracting effects of TB4, dose-response curves to TB4 (10-8-10-2 M) were constructed and compared to KCl-induced contraction. Relaxation was studied in thromboxane (TXA2) precontracted arterial rings. The precontraction was adjusted to 20–40% of the reference contraction to 62 mM KCl, which after cumulative concentrations of TB4 was added to the organ bath. To evaluate the role of NO on the effects of TB4 induced vasodilation, experiments were repeated in arteries incubated with L-NNA, a NO synthase inhibitor (100 μM, 30 min). Data were collected and analyzed using Powerlab and Chart5 softwares (ADI Instruments, Colorado Springs, CO, USA).

coronary arteries = assay: Artery wire myography, coronary arteries; design: species or system pig
Text: as §1

citrated whole blood = assay: Rotem thromboelastometry in vitro (EXTEM, INTEM, FIBTEM); design: species or system pig; settings: for maximum clot firmness, FIBTEM: 1 h room temperature, platelets inhibited, three animals, mean ± SD
Procedure: Rotem®thromboelastometry (Tem Innovations GmbH, Basel, Switzerland) analysis was performed in vitro on blood samples from three blood-donor animals. TB4 was added to citrated whole blood to achieve two different concentrations (0.1 mM and 1 mM) and incubated at room temperature for 1 h. Untreated blood samples served as controls. The samples were analyzed and three parameters were drawn from the results at 60 min: Maximum clot firmness (stability of the blood clot), clotting time (time to clot formation), and maximum lysis of the blood clot. Assays used were EXTEM, INTEM, and FIBTEM. EXTEM measures the activity of the extrinsic pathway with tissue factor activation and INTEM of the intrinsic pathway with contact activation. FIBTEM is used for the assessment of fibrinogen status by complete platelet inhibition.

[1] = system: global myocardial ischemia-reperfusion injury; assay: Cardiomyocyte apoptosis by TUNEL after CPB and aortic cross-clamping; format: in vivo; settings: pig; TB4 6 mg/kg i.v. twice; 30 h post-reperfusion; mean ± SD; p = 0.20 vs other group
Procedure: (§2) The lung was displaced and the pericardium opened. […] Blood lactate levels were monitored to ensure adequate perfusion. […] After weaning, the animals were decannulated. […] The thoracotomy wound was closed in three layers.
Transmural tissue samples from the left and right ventricles were collected and fixed in formalin. Hematoxylin and eosin staining was performed for general histological analysis. Cardiomyocyte apoptosis was determined by terminal transferase nick end-labeling assay (TUNEL) as previously described ([Gavrieli et al., 1992]; [Saraste et al., 1997]). Positive apoptotic nuclei were counted over an ocular grid and presented as a percentage of total cardiomyocyte number in 10 randomly selected microscopic visual high power (×40) fields by an investigator blinded to group assignments.

[2] = system: global myocardial ischemia-reperfusion injury; assay: Cardiac 15O-water PET, myocardial blood flow; format: in vivo; settings: pig; 25 h post-reperfusion; n = 4; mean ± SD; p = 0.86 vs control
Procedure: as §2
The pigs underwent cardiac PET scans 25–26 h post-reperfusion to determine MBF during rest and adenosine stress. PET studies were performed with ECAT EXACT HR+ scanner (Siemens-CTI, Knoxville, TN, USA). Myocardial perfusion was evaluated by PET with ^15O-radiolabeled water (808 ± 129 MBq) both at rest and during intravenous adenosine stress (200 μg/kg/min). The acquisition frames were as follows: 14 × 5 s, 3 × 10 s, 3 × 20 s, and 4 × 30 s (total duration 4 min 40 s). The acquired PET data were reconstructed in 2D mode with an iterative reconstruction algorithm OSEM using six iteration and 16 subsets in the reconstruction. The transaxial field of view (35 cm) was reconstructed in a 128 × 128 matrix, yielding a pixel size of 2.57 mm × 2.57 mm. The measurements were corrected for scatter, random counts, and dead time. The device produces 63 axial planes with a slice thickness of 2.43 mm. Global myocardial perfusion (ml/g/min) was measured using Carimas 2 software (Turku PET Centre, Turku, Finland^1).

[3] = system: global myocardial ischemia-reperfusion injury; format: in vivo, pig
Procedure: The lung was displaced and the pericardium opened. […] Blood lactate levels were monitored to ensure adequate perfusion. […] After weaning, the animals were decannulated. […] The thoracotomy wound was closed in three layers. […] MRI study was performed at 1.5 T system (Philips GyroscanIntera Nova Dual MR, Philips Medical Systems, Best, The Netherlands) with a phased-array torso coil and a vector cardiographic method for ECG-gating. All acquisitions were obtained during short breath hold periods. Each MRI study consisted of cine imaging of both ventricles for volumetrics and wall motion at rest. Late enhancement (LE) imaging was applied for scar assessment. […] A phase-sensitive inversion recovery T1-TFE pulse sequence was applied for LE imaging 10 min after injecting gadoterate meglumine (Dotarem 279.3 mg/mL, Guerbet, Roissy CdG, France) with a dose 0.3 mmol/kg. The following imaging parameters were used: prospective gating, TR/TE 4.0/1.2 ms, flip angle 15°, acquisition matrix 168 × 256, reconstruction matrix 256 × 256, FOV 320-360 mm, rFOV 100%, 8-15 slices/breath hold, slice thickness 6 mm, and gap 0 mm. TI was optimized individually using a TI-scout sequence. The whole LV was covered by LE images at SA orientation.

[4] = Completion of the 30 h follow-up period; format: in vivo, pig; settings: TB4 treatment group n = 6; one died after weaning from CPB (bradycardia), one 20 h after reperfusion (circulatory failure)
Text: Ten landrace pigs weighing 29–43 kg were operated on and divided into a TB4 treatment group (n = 6) and a control group (n = 4). All animal experiments were approved by the Laboratory Animal Care & Use Committee of the State Provincial Office of Southern Finland.
as §2

[5] = system: global myocardial ischemia-reperfusion injury; settings: pig, TB4 6 mg/kg i.v. twice, n = 4, mean ± SD
Procedure: The pigs were pre-anesthetized with an intramuscular injection of 100 mg xylazin (Rompun vet, Bayer Animal Health GmbH, Leverkusen, Germany) and 25 mg midazolam (Midazolam Hameln, Hameln pharmaceuticals GmbH, Hameln, Germany). A peripheral ear vein was cannulated and the animals were medicated with 20 mg boluses of propofol (PropofolLipuro, B. Braun Melsungen AG, Melsungen, Germany) and 150 μg phentanyl (Fentanyl-Hameln, Hameln pharmaceuticals GmbH, Hameln, Germany) and were then intubated and connected to a respirator (Dräger Oxylog 3000, Drägerwerk AG, Lübeck, Germany). The respiratory rate was set to 18–22 times/min with a tidal volume of 8–10 ml/kg using 40% oxygen. Blood gases were monitored to ensure adequate ventilation (i-STAT, Abbott Laboratories, Abbott Park, IL, USA). Anesthesia was maintained with a continuous infusion of propofol 15–30 mg/kg/h, phentanyl 1.5 μg/kg/h and midazolam 100 μg/kg/h. Preoperatively and every 8 h thereafter the animals received antibiotic prophylaxis (Cefuroxime 750 mg, Orion Pharma, Espoo, Finland). Before the heart was cannulated 10000 IU of heparin (Heparin, LEO Pharma, Ballerup, Denmark) was given as a bolus and the dose was repeated every 30 min during extracorporeal circulation. […]
The pigs were placed in a left lateral decubitus position and the chest was shaved and disinfected. […] Blood lactate levels were monitored to ensure adequate perfusion. […]

[6] = after intraperitoneal administration; ref Mora et al., 1997; cited from earlier work
Procedure: The preferred dosing range of TB4 seems to be 2–12 mg/kg both when using single and repeated strategies. […] We wanted to condition the heart before the operation and also affect the immediate post-operative reperfusion period and gave the animals two doses of TB4. Under physiological conditions, concentrations of the peptide in plasma and se ...

[7] = statement in discussion; ref Cierniewski et al., 2012; cited from earlier work
Text: Thymosin beta 4 is normally found in the cytosol and also in the nucleus of cells but lacks a signal sequence for exocytosis. It is unclear whether the high concentrations found in extracellular fluids, is due to active secretion of the peptide or secondary to degranulation of inflammatory cells or cell membrane rupture ([Watts et al., 1990]; [Huff et al., 2001]). TB4 is water soluble and rapidly internalized by endothelial cells in vitro where it binds to actin and participates in the dynamics of the cytoskeleton ([Cierniewski et al., 2012]). At very high concentrations there is also some bin ...

[8] = Serum TB4 concentration by EIA after intravenous infusion; settings: pig, 6 mg/kg
Procedure: The pigs were pre-anesthetized with an intramuscular injection of 100 mg xylazin (Rompun vet, Bayer Animal Health GmbH, Leverkusen, Germany) and 25 mg midazolam (Midazolam Hameln, Hameln pharmaceuticals GmbH, Hameln, Germany). A peripheral ear vein was cannulated and the animals were medicated with 20 mg boluses of propofol (PropofolLipuro, B. Braun Melsungen AG, Melsungen, Germany) and 150 μg phentanyl (Fentanyl-Hameln, Hameln pharmaceuticals GmbH, Hameln, Germany) and were then intubated and connected to a respirator (Dräger Oxylog 3000, Drägerwerk AG, Lübeck, Germany). […] Anesthesia was maintained with a continuous infusion of propofol 15–30 mg/kg/h, phentanyl 1.5 μg/kg/h and midazolam 100 μg/kg/h. […] TB4 (supplied by RegeneRx Biopharmaceuticals Inc, Rockville, MD, USA) was suspended in sterile water to a concentration of 4 mg/ml (0.82 mM) and administered 6 mg/kg through a 15 min intravenous infusion 30 min before the start of the operation and 6 h later.
Serial serum samples were collected from two animals in both groups for pharmacokinetic studies of TB4 by EIA. The serum was prepared and analyzed as parallel samples according to the manufacturers’ manual (Thymosin β4 EIA Kit, Immundiagnostik AG, Bensheim, Germany). A coefficient of variation (calculated as: sample SD/sample mean) of less than 50% between parallel samples was accepted for final analysis.

[9] = TB4 0.1 mM and 1 mM in whole blood

In the case of `CC[C@H](C)[C@H](NC(=O)[C@H](CCC(=O)O)NC(=O)[C@H](C)NC(=O)[C@H](CCSC)NC(=O)[C@H](CC(=O)O)NC(=O)[C@@H]1CCCN1C(=O)[C@H](CCCCN)NC(=O)[C@H](CC(=O)O)NC(=O)[C@H](CO)NC(C)=O)C(=O)N[C@@H](CCC(=O)O)C(=O)N[C@@H](CCCCN)C(=O)N[C@@H](Cc1ccccc1)C(=O)N[C@@H](CC(=O)O)C(=O)N[C@@H](CCCCN)C(=O)N[C@@H](CO)C(=O)N[C@@H](CCCCN)C(=O)N[C@@H](CC(C)C)C(=O)N[C@@H](CCCCN)C(=O)N[C@@H](CCCCN)C(=O)N[C@H](C(=O)N[C@@H](CCC(=O)O)C(=O)N[C@H](C(=O)N[C@@H](CCC(N)=O)C(=O)N[C@@H](CCC(=O)O)C(=O)N[C@@H](CCCCN)C(=O)N[C@@H](CC(N)=O)C(=O)N1CCC[C@H]1C(=O)N[C@@H](CC(C)C)C(=O)N1CCC[C@H]1C(=O)N[C@@H](CO)C(=O)N[C@@H](CCCCN)C(=O)N[C@@H](CCC(=O)O)C(=O)N[C@H](C(=O)N[C@H](C(=O)N[C@@H](CCC(=O)O)C(=O)N[C@@H](CCC(N)=O)C(=O)N[C@@H](CCC(=O)O)C(=O)N[C@@H](CCCCN)C(=O)N[C@@H](CCC(N)=O)C(=O)N[C@@H](C)C(=O)NCC(=O)N[C@@H](CCC(=O)O)C(=O)N[C@@H](CO)C(=O)O)[C@@H](C)CC)[C@@H](C)O)[C@@H](C)O)[C@@H](C)O` [TB4, Thymosin beta 4], the “vasodilatation in mesenteric arteries” value (small mesentery arteries; TXA2 precontracted arterial rings, cumulative TB4 concentrations) is reported as “did not, however, induce vasodilatation”, the “contractile response, % of maximum potassium chloride stimulation” value (small mesentery arteries; mesenteric arteries, TB4 0.1–1 mM, reference 62 mM KCl, arteries from four animals) is reported as 15–30% and the “influence on vasoconstriction or vasodilation at physiological concentrations” value (small mesentery arteries; physiological concentrations of TB4, mesentery and coronary arteries) is reported as “did not observe any influence”. The “relaxation of coronary arteries” value (coronary arteries; TXA2 precontracted porcine coronary rings, TB4 alone) was “modest endothelium-dependent relaxation”, the “relaxation of coronary arteries with nitric oxide synthase inhibitor” value (coronary arteries; arteries incubated with L-NNA 100 μM, 30 min) was “abolished” and the “vasoconstriction in coronary arteries” value (coronary arteries; dose-response to TB4 compared to KCl-induced contraction) was “nor did it induce vasoconstriction”. For the same molecule, the blood clotting time (citrated whole blood; [9]) was “did not have an effect”, the “maximal blood clot fibrinolysis” value (citrated whole blood; [9]) was “did not have an effect” and the “maximum clot firmness, FIBTEM” value (citrated whole blood; TB4 0.1 mM in citrated whole blood) was 37.3 ± 5.9 mm. The “maximum clot firmness, FIBTEM” value (citrated whole blood; TB4 1 mM in citrated whole blood) was 27.7 ± 4.2 mm, the “TUNEL-positive apoptotic cells, right ventricle” value [1] was 0.94 ± 0.33% and the “global myocardial blood flow during rest” value [2] was 1.92 ± 0.38 mL/g/min. For the same molecule, the “gadolinium contrast uptake on late-enhancement scans” value ([3]; 28 h post-reperfusion, any of the animals) was “No uptake of gadolinium contrast was observed”, the “valvular abnormalities on cardiac MRI” value ([3]; pig, in vivo) was “One animal in the TB4 group had mild tricuspid valve regurgitation” and the “left ventricle ejection fraction” value ([3]; pig, 28 h post-reperfusion, n = 4, mean ± SD, p = 0.45 vs control) was 61.9 ± 10.6%. The LVESV ([3]; pig, 28 h post-reperfusion, n = 4, mean ± SD, p = 0.49) was 23.3 ± 8.7 mL, the LVEDV ([3]; pig, 28 h post-reperfusion, n = 4, mean ± SD, p = 0.58) was 60.1 ± 6.8 mL and the “animals not completing the follow-up period” value [4] was “two animals did not complete the follow-up period”. The “cTnT plasma concentration 6 h post-reperfusion” value ([5]; p = 0.27) was 437 ± 291 ng/L, the “cTnT plasma concentration 24 h post-reperfusion” value ([5]; p = 0.55) was 305 ± 75 ng/L and the “time of maximal tissue concentration in heart” value [6] was 2 h. For the same molecule, the solubility in water [7] was “water soluble”, the level at time molar at 0.25 h [8] was 960 nM and the level at time molar at 1 h [8] was 1250 nM.
